Data from PubChem BioAssay (NCI).
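Growth conditions: 96-well plates. Treatment: test compound, 48 hours, 5 concentrations. Analysis: linear interpolation between bracketing concentrations; unreached endpoints set to highest concentration. At the TGI there is no net growth.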

Legend:
Test in all cases: inhibition of tumour cell growth, NCI panel, 48 h
[1] = tested on: BT-549 breast
[2] = tested on: HOP-92 NSCLC
[3] = tested on: SN12C renal
[4] = tested on: MALME-3M melanoma
[5] = tested on: SF-539 CNS
[6] = tested on: HL-60(TB) leukemia
[7] = tested on: OVCAR-5 ovarian
[8] = tested on: MDA-MB-231 breast
[9] = tested on: HCT-116 colon
[10] = tested on: MOLT-4 leukemia
[11] = tested on: SR leukemia
[12] = tested on: SW-620 colon
[13] = tested on: KM12 colon
[14] = tested on: SNB-19 CNS
[15] = tested on: HS 578T breast
[16] = tested on: MDA-MB-435
[17] = tested on: U251 CNS
[18] = tested on: UO-31 renal
[19] = tested on: M14 melanoma
[20] = tested on: 786-0 renal
[21] = tested on: NCI/ADR-RES ovarian
[22] = tested on: LOX IMVI melanoma
[23] = tested on: NCI-H226 lung
[24] = tested on: HCT-15 colon
[25] = tested on: SK-OV-3 ovarian
[26] = tested on: NCI-H460 lung
[27] = tested on: SK-MEL-28 melanoma
[28] = tested on: MCF7 breast
[29] = tested on: HCC-2998 colon
[30] = tested on: OVCAR-8 ovarian
[31] = tested on: SF-268 CNS
[32] = tested on: OVCAR-4 ovarian
[33] = tested on: EKVX NSCLC
[34] = tested on: RPMI-8226 leukemia
[35] = tested on: DU-145 prostate
[36] = tested on: UACC-62 melanoma
[37] = tested on: K-562 leukemia
[38] = tested on: SF-295 CNS
[39] = tested on: HOP-62 NSCLC
[40] = tested on: IGROV1 ovarian
[41] = tested on: ACHN renal
[42] = tested on: UACC-257 melanoma
[43] = tested on: SK-MEL-5 melanoma
[44] = tested on: COLO 205 colon
[45] = tested on: MDA-N
[46] = tested on: CAKI-1 renal
[47] = tested on: CCRF-CEM leukemia
[48] = tested on: A549 NSCLC
[49] = tested on: SNB-75 CNS
[50] = tested on: PC-3 prostate
[51] = tested on: RXF 393 renal
[52] = tested on: NCI-H522 lung
[53] = tested on: T-47D breast
[54] = tested on: SK-MEL-2 melanoma
[55] = tested on: TK-10 renal
[56] = tested on: HT29 colon

Measured: TGI

N=c1oc2ccccc2cc1-c1nc2ccccc2c(=O)[nH]1
69.9 µM: [39]
25.3 µM: [49]
66.1 µM: [2]
84.3 µM: [15]
> 100 µM: all other assays above
